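These data come from cells grown in 96-well plates and exposed to compound for 48 hours at five concentrations. GI50 = concentration required for 50% inhibition of growth. TGI: concentration producing complete growth inhibition.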
Tests used:
Assay in all cases: NCI-60 cell line screen, 48 h
NCI-H226 lung = test system: NCI-H226 lung
NCI/ADR-RES ovarian = test system: NCI/ADR-RES ovarian
DU-145 prostate = test system: DU-145 prostate
HOP-62 NSCLC = test system: HOP-62 NSCLC
HCC-2998 colon = test system: HCC-2998 colon
SK-MEL-28 melanoma = test system: SK-MEL-28 melanoma
TK-10 renal = test system: TK-10 renal
CAKI-1 renal = test system: CAKI-1 renal
HOP-92 NSCLC = test system: HOP-92 NSCLC
HCT-15 colon = test system: HCT-15 colon
CCRF-CEM leukemia = test system: CCRF-CEM leukemia
NCI-H23 lung = test system: NCI-H23 lung
NCI-H460 lung = test system: NCI-H460 lung
MALME-3M melanoma = test system: MALME-3M melanoma
OVCAR-4 ovarian = test system: OVCAR-4 ovarian
A549 NSCLC = test system: A549 NSCLC
HS 578T breast = test system: HS 578T breast
U251 CNS = test system: U251 CNS
MDA-MB-435 = test system: MDA-MB-435
SF-268 CNS = test system: SF-268 CNS
T-47D breast = test system: T-47D breast
OVCAR-3 ovarian = test system: OVCAR-3 ovarian
IGROV1 ovarian = test system: IGROV1 ovarian
MOLT-4 leukemia = test system: MOLT-4 leukemia
OVCAR-8 ovarian = test system: OVCAR-8 ovarian
ACHN renal = test system: ACHN renal
M14 melanoma = test system: M14 melanoma
HCT-116 colon = test system: HCT-116 colon
SK-MEL-2 melanoma = test system: SK-MEL-2 melanoma
SNB-19 CNS = test system: SNB-19 CNS
SK-MEL-5 melanoma = test system: SK-MEL-5 melanoma
NCI-H522 lung = test system: NCI-H522 lung
UACC-62 melanoma = test system: UACC-62 melanoma
SF-295 CNS = test system: SF-295 CNS
SR leukemia = test system: SR leukemia
OVCAR-5 ovarian = test system: OVCAR-5 ovarian
RXF 393 renal = test system: RXF 393 renal
COLO 205 colon = test system: COLO 205 colon
A498 renal = test system: A498 renal
K-562 leukemia = test system: K-562 leukemia
786-0 renal = test system: 786-0 renal
LOX IMVI melanoma = test system: LOX IMVI melanoma
RPMI-8226 leukemia = test system: RPMI-8226 leukemia
SK-OV-3 ovarian = test system: SK-OV-3 ovarian
MCF7 breast = test system: MCF7 breast
PC-3 prostate = test system: PC-3 prostate
UO-31 renal = test system: UO-31 renal
SN12C renal = test system: SN12C renal
KM12 colon = test system: KM12 colon
SF-539 CNS = test system: SF-539 CNS
MDA-MB-231 breast = test system: MDA-MB-231 breast
SW-620 colon = test system: SW-620 colon
HL-60(TB) leukemia = test system: HL-60(TB) leukemia
EKVX NSCLC = test system: EKVX NSCLC
BT-549 breast = test system: BT-549 breast
SNB-75 CNS = test system: SNB-75 CNS
HT29 colon = test system: HT29 colon
UACC-257 melanoma = test system: UACC-257 melanoma

## CNc1c2ccccc2nc2occ(Cl)c12
NCI-H226 lung
  GI50: 32.9 µM
  TGI: > 100 µM
NCI/ADR-RES ovarian
  GI50: 30.1 µM
  TGI: > 100 µM
DU-145 prostate
  GI50: 41.5 µM
  TGI: > 100 µM
HOP-62 NSCLC
  GI50: 40.7 µM
  TGI: > 100 µM
HCC-2998 colon
  GI50: 36 µM
  TGI: > 100 µM
SK-MEL-28 melanoma
  GI50: 48.7 µM
  TGI: > 100 µM
TK-10 renal
  GI50: 17.9 µM
  TGI: 56.7 µM
CAKI-1 renal
  GI50: 12 µM
  TGI: 33.2 µM
HOP-92 NSCLC
  GI50: 26.9 µM
  TGI: > 100 µM
HCT-15 colon
  GI50: 33.8 µM
  TGI: > 100 µM
CCRF-CEM leukemia
  GI50: 27.1 µM
  TGI: 84.5 µM
NCI-H23 lung
  GI50: 40.9 µM
  TGI: > 100 µM
NCI-H460 lung
  GI50: 21.8 µM
  TGI: 72.1 µM
MALME-3M melanoma
  GI50: 25.1 µM
  TGI: 59.5 µM
OVCAR-4 ovarian
  GI50: 29.4 µM
  TGI: > 100 µM
A549 NSCLC
  GI50: 31 µM
  TGI: > 100 µM
HS 578T breast
  GI50: 20.9 µM
  TGI: 79.3 µM
U251 CNS
  GI50: 31.4 µM
  TGI: > 100 µM
MDA-MB-435
  GI50: 17.2 µM
  TGI: 79.9 µM
SF-268 CNS
  GI50: 26.8 µM
  TGI: > 100 µM
T-47D breast
  GI50: 66.1 µM
  TGI: > 100 µM
OVCAR-3 ovarian
  GI50: 24 µM
  TGI: 75.2 µM
IGROV1 ovarian
  GI50: 50.5 µM
  TGI: > 100 µM
MOLT-4 leukemia
  GI50: 13.3 µM
  TGI: 64.6 µM
OVCAR-8 ovarian
  GI50: 37.7 µM
  TGI: > 100 µM
ACHN renal
  GI50: 24 µM
  TGI: 70.5 µM
M14 melanoma
  GI50: 37.2 µM
  TGI: > 100 µM
HCT-116 colon
  GI50: 17.1 µM
  TGI: 40.5 µM
SK-MEL-2 melanoma
  GI50: > 100 µM
  TGI: > 100 µM
SNB-19 CNS
  GI50: 51.6 µM
  TGI: > 100 µM
SK-MEL-5 melanoma
  GI50: 16.6 µM
  TGI: 34.8 µM
NCI-H522 lung
  GI50: 80.3 µM
  TGI: > 100 µM
UACC-62 melanoma
  GI50: 33.3 µM
  TGI: > 100 µM
SF-295 CNS
  GI50: 20.6 µM
  TGI: 88.2 µM
SR leukemia
  GI50: 18.3 µM
  TGI: 50.6 µM
OVCAR-5 ovarian
  GI50: 47 µM
  TGI: > 100 µM
RXF 393 renal
  GI50: 19.7 µM
  TGI: 50.8 µM
COLO 205 colon
  GI50: 30.6 µM
  TGI: > 100 µM
A498 renal
  GI50: 11.9 µM
  TGI: 41.7 µM
K-562 leukemia
  GI50: 26.4 µM
  TGI: > 100 µM
786-0 renal
  GI50: 34.6 µM
  TGI: > 100 µM
LOX IMVI melanoma
  GI50: 25.5 µM
  TGI: 75.2 µM
RPMI-8226 leukemia
  GI50: 16 µM
  TGI: 39.8 µM
SK-OV-3 ovarian
  GI50: 36.8 µM
  TGI: > 100 µM
MCF7 breast
  GI50: 32.3 µM
  TGI: > 100 µM
PC-3 prostate
  GI50: 26.5 µM
  TGI: > 100 µM
UO-31 renal
  GI50: 31.3 µM
  TGI: > 100 µM
SN12C renal
  GI50: 52.6 µM
  TGI: > 100 µM
KM12 colon
  GI50: 32.6 µM
  TGI: > 100 µM

## COc1cc(C[C@H]2COC(=O)[C@]2(O)Cc2ccc(OCc3ccccc3)c(OC)c2)ccc1OCc1ccccc1
NCI-H226 lung
  GI50: 33.7 µM
  TGI: > 100 µM
NCI/ADR-RES ovarian
  GI50: 5.18 µM
  TGI: > 100 µM
DU-145 prostate
  GI50: 85.9 µM
  TGI: > 100 µM
HOP-62 NSCLC
  GI50: > 100 µM
  TGI: > 100 µM
SF-539 CNS
  GI50: 37.6 µM
  TGI: > 100 µM
MDA-MB-231 breast
  GI50: > 100 µM
  TGI: > 100 µM
SW-620 colon
  GI50: > 100 µM
  TGI: > 100 µM
HCC-2998 colon
  GI50: 26.5 µM
  TGI: > 100 µM
SK-MEL-28 melanoma
  GI50: > 100 µM
  TGI: > 100 µM
TK-10 renal
  GI50: 26.7 µM
  TGI: > 100 µM
CAKI-1 renal
  GI50: 19.4 µM
  TGI: > 100 µM
HL-60(TB) leukemia
  GI50: 28 µM
  TGI: > 100 µM
HOP-92 NSCLC
  GI50: > 100 µM
  TGI: > 100 µM
HCT-15 colon
  GI50: 19 µM
  TGI: > 100 µM
CCRF-CEM leukemia
  GI50: > 100 µM
  TGI: > 100 µM
NCI-H23 lung
  GI50: 30.6 µM
  TGI: > 100 µM
NCI-H460 lung
  GI50: 9.77 µM
  TGI: > 100 µM
MALME-3M melanoma
  GI50: 8.33 µM
  TGI: 87.3 µM
OVCAR-4 ovarian
  GI50: > 100 µM
  TGI: > 100 µM
A549 NSCLC
  GI50: 7.13 µM
  TGI: > 100 µM
HS 578T breast
  GI50: 42.9 µM
  TGI: > 100 µM
U251 CNS
  GI50: 23.9 µM
  TGI: > 100 µM
EKVX NSCLC
  GI50: 24.2 µM
  TGI: > 100 µM
MDA-MB-435
  GI50: 20.9 µM
  TGI: > 100 µM
SF-268 CNS
  GI50: 73.7 µM
  TGI: > 100 µM
T-47D breast
  GI50: 12.1 µM
  TGI: > 100 µM
OVCAR-3 ovarian
  GI50: > 100 µM
  TGI: > 100 µM
IGROV1 ovarian
  GI50: > 100 µM
  TGI: > 100 µM
MOLT-4 leukemia
  GI50: 6.2 µM
  TGI: > 100 µM
OVCAR-8 ovarian
  GI50: 12.3 µM
  TGI: > 100 µM
ACHN renal
  GI50: 26.1 µM
  TGI: > 100 µM
M14 melanoma
  GI50: 47 µM
  TGI: > 100 µM
HCT-116 colon
  GI50: 16.8 µM
  TGI: > 100 µM
SK-MEL-2 melanoma
  GI50: > 100 µM
  TGI: > 100 µM
SNB-19 CNS
  GI50: > 100 µM
  TGI: > 100 µM
SK-MEL-5 melanoma
  GI50: 13.7 µM
  TGI: 37.1 µM
NCI-H522 lung
  GI50: 65.2 µM
  TGI: > 100 µM
UACC-62 melanoma
  GI50: 40.5 µM
  TGI: > 100 µM
SF-295 CNS
  GI50: 18.9 µM
  TGI: > 100 µM
BT-549 breast
  GI50: 28.1 µM
  TGI: > 100 µM
OVCAR-5 ovarian
  GI50: > 100 µM
  TGI: > 100 µM
RXF 393 renal
  GI50: 40.3 µM
  TGI: > 100 µM
COLO 205 colon
  GI50: 5.16 µM
  TGI: 24.1 µM
A498 renal
  GI50: 27.5 µM
  TGI: 99.1 µM
SNB-75 CNS
  GI50: > 100 µM
  TGI: > 100 µM
K-562 leukemia
  GI50: 62.3 µM
  TGI: > 100 µM
786-0 renal
  GI50: 85.4 µM
  TGI: > 100 µM
LOX IMVI melanoma
  GI50: 35.9 µM
  TGI: > 100 µM
RPMI-8226 leukemia
  GI50: 71.9 µM
  TGI: > 100 µM
SK-OV-3 ovarian
  GI50: > 100 µM
  TGI: > 100 µM
MCF7 breast
  GI50: 8.17 µM
  TGI: > 100 µM
PC-3 prostate
  GI50: 74.7 µM
  TGI: > 100 µM
UO-31 renal
  GI50: 35.5 µM
  TGI: > 100 µM
SN12C renal
  GI50: 12.5 µM
  TGI: > 100 µM
HT29 colon
  GI50: 4.16 µM
  TGI: > 100 µM
UACC-257 melanoma
  GI50: 16 µM
  TGI: > 100 µM
KM12 colon
  GI50: 7.3 µM
  TGI: > 100 µM

## Cc1cn2c(/C=N/N=C(N)N)c(-c3cc([N+](=O)[O-])c(Cl)cc3Cl)nc2s1
NCI/ADR-RES ovarian
  TGI: > 100 µM
A549 NSCLC
  TGI: > 100 µM
COLO 205 colon
  TGI: > 100 µM
UO-31 renal
  TGI: 3.74 µM

Source: PubChem BioAssay (NCI)
